Measured values taken from PubChem BioAssay (NCI).
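Tested at 5 concentrations; 48 h exposure; 96-well plates; endpoints linearly interpolated, else capped at highest concentration. The concentration for 50% growth inhibition is given as GI50. The concentration for full growth arrest is given as TGI.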

How the values were obtained:
Test in all cases: NCI tumour cell line growth inhibition, 48 h
[1] = test system: A549 NSCLC
[2] = test system: HL-60(TB) leukemia
[3] = test system: HOP-62 NSCLC
[4] = test system: IGROV1 ovarian
[5] = test system: MALME-3M melanoma
[6] = test system: NCI-H522 lung
[7] = test system: U251 CNS
[8] = test system: SF-295 CNS

| SMILES | TGI [1] | TGI [2] | TGI [3] | TGI [4] | TGI [5] | TGI [6] | TGI [7] | TGI [8] | GI50 [1] | GI50 [2] | GI50 [3] | GI50 [4] | GI50 [5] | GI50 [6] | GI50 [8] | GI50 [7] |
| --- | --- | --- | --- | --- | --- | --- | --- | --- | --- | --- | --- | --- | --- | --- | --- | --- |
| C[C@H](CCC(=O)O)[C@H]1CC[C@H]2[C@@H]3[C@H](O)[C@H](O)[C@@H]4C[C@H](O)CC[C@]4(C)[C@H]3CC[C@]12C | > 100 µM | > 100 µM | > 100 µM | > 100 µM | > 100 µM | > 100 µM | > 100 µM |  |  |  |  |  |  |  |  |  |
| O=C1C2CCCC2N1Cc1ccccc1 (stereo not drawn) |  | > 100 µM | > 100 µM | > 100 µM |  | > 100 µM |  | > 100 µM |  |  |  |  |  |  |  |  |
| CCOC(=O)c1ccc(Nc2nc3ccccc3n3cccc23)cc1 | > 100 µM | 0.0169 µM | 75.7 µM | > 100 µM | > 100 µM | > 100 µM | 98 µM | > 100 µM |  |  |  |  |  |  |  |  |
| COc1cc(-c2n/c(=C\c3c(O)[nH]c4ccccc34)cc3c2=Nc2ccccc2-3)ccc1F | 23.5 µM | > 100 µM | 17.3 µM | 48.9 µM | 23.2 µM | 51.6 µM | 4.19 µM | > 100 µM | 7.06 µM | > 100 µM | 4.68 µM | 10.3 µM | 4.38 µM | 8.79 µM | 24.4 µM | 2.05 µM |
| O=C(N/N=C\c1ccc(N(CCCl)CCCl)cc1)c1cccnc1 | > 100 µM | 46.9 µM | > 100 µM | > 100 µM | > 100 µM | > 100 µM | > 100 µM | 73.2 µM | 37.5 µM | 3.39 µM | 31.5 µM | > 100 µM | 55 µM | 29 µM | 6.31 µM | > 100 µM |
| CC(C)CC(C#CCCOC(=O)c1ccccc1)OC(=O)c1ccccc1 (stereo not drawn) | > 10 µM | > 10 µM | > 10 µM | > 10 µM | > 10 µM |  | > 10 µM | > 10 µM |  |  |  |  |  |  |  |  |
| COc1nc2c(c(=O)[nH]1)N=C(c1ccccc1)CC(c1ccccc1)N2 (stereo not drawn) | > 100 µM |  | > 100 µM | > 100 µM | > 100 µM | > 100 µM | > 100 µM | > 100 µM |  |  |  |  |  |  |  |  |
| C[n+]1c2ccccc2n2c3ccccc3c(NCc3ccco3)c(C#N)c21 | > 100 µM | 8.69 µM | 11.4 µM |  | 7.59 µM | 2.83 µM | 13 µM | 16.6 µM |  |  |  |  |  |  |  |  |
| COc1cc(/C=C2\C(=O)Nc3ccc(Cl)cc32)cc(OC)c1OC | > 100 µM | > 100 µM |  | > 100 µM | > 100 µM | > 100 µM | 32.4 µM | > 100 µM | 41.2 µM | 13.4 µM |  | 4.51 µM | 32 µM | 13.7 µM | 78.2 µM | 13.1 µM |
| Cn1c2ccccc2c2c3c(c4c5ccccc5n(C)c4c21)C(=O)N(Cc1ccccc1)C3=O | > 100 µM |  | > 100 µM | > 100 µM | > 100 µM | > 100 µM | > 100 µM | > 100 µM |  |  |  |  |  |  |  |  |
| CC(=O)OCCCCn1nncc1Cn1ccc(=O)n(Cc2cnnn2CCCCOC(C)=O)c1=O | > 100 µM |  | > 100 µM | > 100 µM | > 100 µM |  | > 100 µM | > 100 µM |  |  |  |  |  |  |  |  |
| CCCNC(=O)Cn1c2c(c3ccccc31)CCCC2 | > 100 µM | > 100 µM | > 100 µM | > 100 µM | > 100 µM |  |  | > 100 µM |  |  |  |  |  |  |  |  |
| O=c1c2ccccc2ncn1COCc1ccccc1 | > 100 µM | > 100 µM |  | > 100 µM |  |  | > 100 µM | > 100 µM |  |  |  |  |  |  |  |  |
| Fc1ccccc1-c1cc(=S)c2cc3c(cc2[nH]1)OCO3 | > 100 µM |  | > 100 µM | > 100 µM | > 100 µM | 57 µM | > 100 µM | > 100 µM |  |  |  |  |  |  |  |  |
| Cc1cn(CCCCOC(=O)NC(CCCN=C(N)N)C(=O)O)c(=O)[nH]c1=O (stereo not drawn) | > 100 µM | > 100 µM | > 100 µM | > 100 µM |  |  | > 100 µM | > 100 µM |  |  |  |  |  |  |  |  |
| CS(=O)(=O)c1ccc(C(=O)O[C@@H]2C(=O)N3CC[C@H]4OC(O)[C@@H]2[C@H]43)cc1 (stereo partly drawn) | > 100 µM |  | > 100 µM |  |  |  | > 100 µM | > 100 µM |  |  |  |  |  |  |  |  |
| Cc1cn(C(CO)OC(CO)CN(O)C2C3CC4CC(C3)CC2C4)c(=O)[nH]c1=O (stereo not drawn) | > 100 µM | > 100 µM | > 100 µM | > 100 µM |  |  | > 100 µM | > 100 µM |  |  |  |  |  |  |  |  |
| O=C(CSc1nc2ccc(I)cc2c(=O)n1Cc1ccccc1)NNC(=S)Nc1ccccc1 | > 100 µM | > 100 µM |  |  |  | > 100 µM | > 100 µM | > 100 µM |  |  |  |  |  |  |  |  |
| CC(C)(C)n1[nH]c(=O)n(C(C)(C)C)c1=O | > 100 µM | > 100 µM |  |  |  |  | > 100 µM | > 100 µM |  |  |  |  |  |  |  |  |
| COc1cc2c(c(OC)c1OC)-c1ccc(OC)c(=O)cc1C(NC(=O)CCCCCNc1ccc(N=[N+]=[N-])cc1[N+](=O)[O-])CC2 (stereo not drawn) | 5.8 µM | < 0.01 µM | > 31.6 µM | > 31.6 µM | 26.1 µM |  | 11.1 µM | 12.5 µM |  |  |  |  |  |  |  |  |
| CSc1c(C(N)=S)c(N)nn1-c1ccccc1 | > 100 µM | > 100 µM |  | > 100 µM | > 100 µM | > 100 µM | > 100 µM |  |  |  |  |  |  |  |  |  |
| CCCCCCCCCCCCCC(=O)OCC(CCS(=O)(=O)O[C@H]1CC[C@@]2(C)C(=CC[C@@H]3C2CC[C@]2(C)C(=O)CCC32)C1)OC(=O)CCCCCCCCCCCCC (stereo partly drawn) | > 100 µM | > 100 µM | > 100 µM | > 100 µM | > 100 µM |  | > 100 µM | > 100 µM |  |  |  |  |  |  |  |  |
| Cc1cc2c3c(nc2c2cc[nH]c(C)c12)CCCC3 | 4.53 µM | 3.76 µM | 3.62 µM | 5.4 µM | 2.74 µM |  | 3.83 µM | 3.93 µM |  |  |  |  |  |  |  |  |
| Nc1nncc2n[nH]nc12 | > 100 µM | > 100 µM | > 100 µM | > 100 µM |  |  | > 100 µM | > 100 µM |  |  |  |  |  |  |  |  |
| Cc1nc(-c2cccnc2)sc1C(=O)CC(=O)C(=O)Nc1cccc(NC(=O)C(=O)CC(=O)c2sc(-c3cccnc3)nc2C)n1 | > 100 µM | > 100 µM |  | > 100 µM | > 100 µM | > 100 µM | > 100 µM | > 100 µM |  |  |  |  |  |  |  |  |
